target: human RIP1 kinase domain (2-375) (Homo sapiens (Human), UniProt Q13546); test: biochemical; format: biochemical; details: Ki
Method in brief: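 Ki^app comes from Morrison tight-binding fits of fractional activity versus compound concentration. Activity was read as ADP production, via tracer displacement lowering fluorescence polarization (633 nm laser). Conditions: 2 h, 50 nM insect-cell-expressed enzyme, 50 uM ATP, 30 mM MgCl2, 1 mM DTT, 0.5% DMSO, pH 7.5 Hepes.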

human RIP1 kinase domain (2-375), sequence (Q13546 2-375): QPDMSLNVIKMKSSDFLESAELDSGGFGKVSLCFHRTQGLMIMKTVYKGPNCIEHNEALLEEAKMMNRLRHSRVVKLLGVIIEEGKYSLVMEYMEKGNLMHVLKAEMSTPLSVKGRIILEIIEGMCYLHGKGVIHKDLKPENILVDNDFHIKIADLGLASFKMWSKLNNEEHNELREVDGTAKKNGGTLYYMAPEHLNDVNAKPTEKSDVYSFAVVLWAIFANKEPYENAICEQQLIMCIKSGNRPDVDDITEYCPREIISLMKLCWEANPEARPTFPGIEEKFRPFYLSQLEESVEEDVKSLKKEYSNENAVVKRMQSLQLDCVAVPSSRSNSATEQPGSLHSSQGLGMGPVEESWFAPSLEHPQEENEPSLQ

Row | Ki [nM] | Structure (SMILES)
1 | 411 | CN1C(=O)[C@@H](NC(=O)c2ncn(Cc3ccccc3)n2)CCn2nc(C3CNC3)cc21 [Example 754, 1-benzyl-N-[(6S)-2-(azetidin-3-yl)-4-methyl-5-oxo-7,8-dihydro-6H-pyrazolo[1,5-a][1,3]diazepin-6-yl]-1,2,4-triazole-3-carboxamide]

same assay, conditions: Table 5; apparent Ki (Morrison tight-binding fit); 50 nM RIP1 kinase domain, 50 uM ATP, 2 hours incubation; read-out: Ki

Row | Ki [nM] | Structure (SMILES)
2 | 116 | CN1C(=O)[C@@H](NC(=O)c2ncn(Cc3ccccc3)n2)CCn2nc(CCN3CCOCC3)cc21 [Example 752, 1-benzyl-N-[(6S)-4-methyl-2-(2-morpholinoethyl)-5-oxo-7,8-dihydro-6H-pyrazolo[1,5-a][1,3]diazepin-6-yl]-1,2,4-triazole-3-carboxamide]
3 | 124 | COCCOCCc1cc2n(n1)CC[C@H](NC(=O)c1ncn(Cc3ccccc3)n1)C(=O)N2C [Example 755, 1-benzyl-N-[(6S)-2-[2-(2-methoxyethoxy)ethyl]-4-methyl-5-oxo-7,8-dihydro-6H-pyrazolo[1,5-a][1,3]diazepin-6-yl]-1,2,4-triazole-3-carboxamide]
4 | 623 | CN1C(=O)[C@@H](NC(=O)c2ncn(Cc3ccccc3)n2)CCn2nc(CCN3CCC3)cc21 [Example 756]
5 | 168 | COC1CN(CCc2cc3n(n2)CC[C@H](NC(=O)c2ncn(Cc4ccccc4)n2)C(=O)N3C)C1 [Example 757]
6 | 86 | CCOCCc1cc2n(n1)CC[C@H](NC(=O)c1ncn(Cc3ccccc3)n1)C(=O)N2C [Example 758]
7 | 159 | CN1C(=O)[C@@H](NC(=O)c2ncn(Cc3ccccc3)n2)CCn2nc(CCN3CC4CC3CO4)cc21 (stereo partly drawn) [Example 761, 1-benzyl-N-[(6S)-4-methyl-2-[2-(2-oxa-5-azabicyclo[2.2.1]heptan-5-yl)ethyl]-5-oxo-7,8-dihydro-6H-pyrazolo[1,5-a][1,3]diazepin-6-yl]-1,2,4-triazole-3-carboxamide]
8 | 182 | CN1C(=O)[C@@H](NC(=O)c2ncn(Cc3ccccc3F)n2)CCn2nc(CCN3CC4CC3CO4)cc21 (some centres unmarked) [Example 762]
9 | 84 | CN1C(=O)[C@@H](NC(=O)c2ncn(Cc3ccccc3)n2)CCn2nc(CCO)cc21 [Example 766, 1-benzyl-N-[(6S)-2-(2-hydroxyethyl)-4-methyl-5-oxo-7,8-dihydro-6H-pyrazolo[1,5-a][1,3]diazepin-6-yl]-1,2,4-triazole-3-carboxamide]
10 | 64 | COCCc1cc2n(n1)CC[C@H](NC(=O)c1ncn(Cc3ccccc3)n1)C(=O)N2C [Example 767, 1-benzyl-N-[(6S)-2-(2-methoxyethyl)-4-methyl-5-oxo-7,8-dihydro-6H-pyrazolo [1,5-a][1,3]diazepin-6-yl]-1,2,4-triazole-3-carboxamide]
11 | 233 | CN1C(=O)[C@@H](NC(=O)c2ncn(Cc3ccccc3)n2)CCn2nc(CCN3CC(F)C3)cc21 [Example 769]

More lines, now with the values behind:

Row | Structure (SMILES) | Ki [nM]
12 | Cc1cc2n(n1)CC[C@H](NC(=O)c1cn(Cc3ccccc3)cn1)C(=O)N2C [Example 751, 1-benzyl-N-[(6S)-2,4-dimethyl-5-oxo-7,8-dihydro-6H-pyrazolo[1,5-a][1,3]diazepin-6-yl]imidazole-4-carboxamide] | 44
13 | CN1C(=O)[C@@H](NC(=O)c2ncn(Cc3ccccc3F)n2)CCn2nc(CCN3CCOCC3)cc21 [Example 753] | 74
14 | CN1C(=O)[C@@H](NC(=O)c2ncn(Cc3ccccc3)n2)CCn2nc(C3CN(C(=O)OC(C)(C)C)C3)cc21 [Example 759] | 24
15 | COCCOCCc1cc2n(n1)CC[C@H](NC(=O)c1ncn(Cc3ccccc3F)n1)C(=O)N2C [Example 760, 1-[(2-fluorophenyl)methyl]-N-[(6S)-2-[2(2-methoxyethoxy)ethyl]-4-methyl-5-oxo-7,8-dihydro-6H-pyrazolo[1,5-a][1,3]diazepin-6-yl]-1,2,4-triazole-3-carboxamide] | 77
16 | CCOCCc1cc2n(n1)CC[C@H](NC(=O)c1ncn(Cc3ccccc3F)n1)C(=O)N2C [Example 763] | 73
17 | COCCc1cc2n(n1)CC[C@H](NC(=O)c1ncn(Cc3ccccc3F)n1)C(=O)N2C [Example 768] | 51

Reference: patent US10988459B2 (priority 2015, dated 2021)
